{"source": "the supplement of paper PMC10307832", "assay_in_all_cases": "relative viability (nuclei count vs DMSO), 5 days (fraction); higher = more cells survive", "key": {"NCI-H3122": {"system": "NCI-H3122", "procedure,_shortened": "(§1)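 Cells from lung cancer lines were seeded into 1536-well plates and, one day later, dosed by pin tool. Treatments were either a single drug or a fixed dose of an anchor drug with five library-drug doses (not always all listed) in √10 steps. After 5 days, nuclei were stained in a one-step fixation (final 0.05% Triton X-100, 1% formaldehyde, 1 ug/ml Hoechst) and counted on 4× images, and relative viability is the treated-to-vehicle nuclei ratio, as the median of duplicate plates.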"}, "NCI-H1703": {"system": "NCI-H1703", "procedure,_shortened": "as §1"}, "HCC-44": {"system": "HCC-44", "procedure,_shortened": "as §1"}, "LOU-NH91": {"system": "LOU-NH91", "procedure,_shortened": "as §1"}, "LXF-289": {"system": "LXF-289", "procedure,_shortened": "as §1"}, "NCI-H1648": {"system": "NCI-H1648", "procedure,_shortened": "as §1"}, "HCC-366": {"system": "HCC-366", "procedure,_shortened": "as §1"}, "NCI-H1437": {"system": "NCI-H1437", "procedure,_shortened": "as §1"}, "NCI-H2085": {"system": "NCI-H2085", "procedure,_shortened": "as §1"}, "IA-LM": {"system": "IA-LM", "procedure,_shortened": "as §1"}}, "data": [{"smiles": "Nc1ccn([C@@H]2O[C@H](CO)[C@@H](O)[C@@H]2O)c(=O)n1", "note": "[Cytarabine] + NC(=O)Nc1cc(-c2cccc(F)c2)sc1C(=O)N[C@H]1CCCNC1 [AZD7762] (partner 0.2 µM)", "values": [{"measurement": "relative viability", "setting": "NCI-H3122; first compound 0.005 µM", "value": 0.943}, {"measurement": "relative viability", "setting": "NCI-H3122; first compound 0.01581 µM", "value": 0.585}, {"measurement": "relative viability", "setting": "NCI-H3122; first compound 0.05 µM", "value": 0.397}, {"measurement": "relative viability", "setting": "NCI-H3122; first compound 0.1581 µM", "value": 0.184}, {"measurement": "relative viability", "setting": "NCI-H3122; first compound 0.5 µM", "value": 0.138}, {"measurement": "relative viability", "setting": "NCI-H1703; first compound 0.005 µM", "value": 0.108}, {"measurement": "relative viability", "setting": "NCI-H1703; first compound 0.01581 µM", "value": 0.121}, {"measurement": "relative viability", "setting": "NCI-H1703; first compound 0.05 µM", "value": 0.103}, {"measurement": "relative viability", "setting": "NCI-H1703; first compound 0.1581 µM", "value": 0.124}, {"measurement": "relative viability", "setting": "NCI-H1703; first compound 0.5 µM", "value": 0.13}, {"measurement": "relative viability", "setting": "HCC-44; first compound 0.005 µM", "value": 1.07}, {"measurement": "relative viability", "setting": "HCC-44; first compound 0.01581 µM", "value": 0.916}, {"measurement": "relative viability", "setting": "HCC-44; first compound 0.05 µM", "value": 0.476}, {"measurement": "relative viability", "setting": "HCC-44; first compound 0.1581 µM", "value": 0.332}, {"measurement": "relative viability", "setting": "HCC-44; first compound 0.5 µM", "value": 0.249}, {"measurement": "relative viability", "setting": "LOU-NH91; first compound 0.005 µM", "value": 0.645}, {"measurement": "relative viability", "setting": "LOU-NH91; first compound 0.01581 µM", "value": 0.803}, {"measurement": "relative viability", "setting": "LOU-NH91; first compound 0.05 µM", "value": 0.708}, {"measurement": "relative viability", "setting": "LOU-NH91; first compound 0.1581 µM", "value": 0.548}, {"measurement": "relative viability", "setting": "LOU-NH91; first compound 0.5 µM", "value": 0.252}, {"measurement": "relative viability", "setting": "LXF-289; first compound 0.005 µM", "value": 0.927}, {"measurement": "relative viability", "setting": "LXF-289; first compound 0.01581 µM", "value": 0.85}, {"measurement": "relative viability", "setting": "LXF-289; first compound 0.05 µM", "value": 0.442}, {"measurement": "relative viability", "setting": "LXF-289; first compound 0.1581 µM", "value": 0.123}, {"measurement": "relative viability", "setting": "LXF-289; first compound 0.5 µM", "value": 0.0877}, {"measurement": "relative viability", "setting": "NCI-H1648; first compound 0.005 µM", "value": 0.647}, {"measurement": "relative viability", "setting": "NCI-H1648; first compound 0.01581 µM", "value": 0.882}, {"measurement": "relative viability", "setting": "NCI-H1648; first compound 0.05 µM", "value": 0.73}, {"measurement": "relative viability", "setting": "NCI-H1648; first compound 0.1581 µM", "value": 0.527}, {"measurement": "relative viability", "setting": "NCI-H1648; first compound 0.5 µM", "value": 0.401}, {"measurement": "relative viability", "setting": "HCC-366; first compound 0.005 µM", "value": 0.139}, {"measurement": "relative viability", "setting": "HCC-366; first compound 0.01581 µM", "value": 0.0915}, {"measurement": "relative viability", "setting": "HCC-366; first compound 0.05 µM", "value": 0.107}, {"measurement": "relative viability", "setting": "HCC-366; first compound 0.1581 µM", "value": 0.0525}, {"measurement": "relative viability", "setting": "HCC-366; first compound 0.5 µM", "value": 0.038}, {"measurement": "relative viability", "setting": "NCI-H1437; first compound 0.005 µM", "value": 1.04}, {"measurement": "relative viability", "setting": "NCI-H1437; first compound 0.01581 µM", "value": 0.549}, {"measurement": "relative viability", "setting": "NCI-H1437; first compound 0.05 µM", "value": 0.321}, {"measurement": "relative viability", "setting": "NCI-H1437; first compound 0.1581 µM", "value": 0.167}, {"measurement": "relative viability", "setting": "NCI-H1437; first compound 0.5 µM", "value": 0.146}, {"measurement": "relative viability", "setting": "NCI-H2085; first compound 0.005 µM", "value": 0.997}, {"measurement": "relative viability", "setting": "NCI-H2085; first compound 0.01581 µM", "value": 0.997}, {"measurement": "relative viability", "setting": "NCI-H2085; first compound 0.05 µM", "value": 0.956}, {"measurement": "relative viability", "setting": "NCI-H2085; first compound 0.1581 µM", "value": 0.694}, {"measurement": "relative viability", "setting": "NCI-H2085; first compound 0.5 µM", "value": 0.516}]}, {"smiles": "Nc1ccn([C@@H]2O[C@H](CO)[C@@H](O)[C@@H]2O)c(=O)n1", "note": "[Cytarabine] + O=C(CCCCCCC(=O)Nc1ccccc1)NO [Vorinostat] (partner 1 µM)", "values": [{"measurement": "relative viability", "setting": "NCI-H3122; first compound 0.005 µM", "value": 0.938}, {"measurement": "relative viability", "setting": "NCI-H3122; first compound 0.01581 µM", "value": 0.914}, {"measurement": "relative viability", "setting": "NCI-H3122; first compound 0.05 µM", "value": 0.894}, {"measurement": "relative viability", "setting": "NCI-H3122; first compound 0.1581 µM", "value": 0.695}, {"measurement": "relative viability", "setting": "NCI-H3122; first compound 0.5 µM", "value": 0.293}, {"measurement": "relative viability", "setting": "HCC-44; first compound 0.005 µM", "value": 1.2}, {"measurement": "relative viability", "setting": "HCC-44; first compound 0.01581 µM", "value": 1.09}, {"measurement": "relative viability", "setting": "HCC-44; first compound 0.05 µM", "value": 1.08}, {"measurement": "relative viability", "setting": "HCC-44; first compound 0.1581 µM", "value": 0.973}, {"measurement": "relative viability", "setting": "HCC-44; first compound 0.5 µM", "value": 0.948}, {"measurement": "relative viability", "setting": "LOU-NH91; first compound 0.005 µM", "value": 0.857}, {"measurement": "relative viability", "setting": "LOU-NH91; first compound 0.01581 µM", "value": 0.917}, {"measurement": "relative viability", "setting": "LOU-NH91; first compound 0.05 µM", "value": 0.806}, {"measurement": "relative viability", "setting": "LOU-NH91; first compound 0.1581 µM", "value": 0.772}, {"measurement": "relative viability", "setting": "LOU-NH91; first compound 0.5 µM", "value": 0.676}, {"measurement": "relative viability", "setting": "IA-LM; first compound 0.005 µM", "value": 0.868}, {"measurement": "relative viability", "setting": "IA-LM; first compound 0.01581 µM", "value": 1.03}, {"measurement": "relative viability", "setting": "IA-LM; first compound 0.05 µM", "value": 1.07}, {"measurement": "relative viability", "setting": "IA-LM; first compound 0.1581 µM", "value": 0.518}, {"measurement": "relative viability", "setting": "IA-LM; first compound 0.5 µM", "value": 0.578}, {"measurement": "relative viability", "setting": "LXF-289; first compound 0.005 µM", "value": 0.736}, {"measurement": "relative viability", "setting": "LXF-289; first compound 0.01581 µM", "value": 0.856}, {"measurement": "relative viability", "setting": "LXF-289; first compound 0.05 µM", "value": 0.639}, {"measurement": "relative viability", "setting": "LXF-289; first compound 0.1581 µM", "value": 0.464}, {"measurement": "relative viability", "setting": "LXF-289; first compound 0.5 µM", "value": 0.27}, {"measurement": "relative viability", "setting": "NCI-H1648; first compound 0.005 µM", "value": 0.4}, {"measurement": "relative viability", "setting": "NCI-H1648; first compound 0.01581 µM", "value": 0.354}, {"measurement": "relative viability", "setting": "NCI-H1648; first compound 0.05 µM", "value": 0.556}, {"measurement": "relative viability", "setting": "NCI-H1648; first compound 0.1581 µM", "value": 0.408}, {"measurement": "relative viability", "setting": "NCI-H1648; first compound 0.5 µM", "value": 0.357}, {"measurement": "relative viability", "setting": "HCC-366; first compound 0.005 µM", "value": 0.31}, {"measurement": "relative viability", "setting": "HCC-366; first compound 0.01581 µM", "value": 0.347}, {"measurement": "relative viability", "setting": "HCC-366; first compound 0.05 µM", "value": 0.301}, {"measurement": "relative viability", "setting": "HCC-366; first compound 0.1581 µM", "value": 0.087}, {"measurement": "relative viability", "setting": "HCC-366; first compound 0.5 µM", "value": 0.0576}, {"measurement": "relative viability", "setting": "NCI-H1437; first compound 0.005 µM", "value": 0.889}, {"measurement": "relative viability", "setting": "NCI-H1437; first compound 0.01581 µM", "value": 0.77}, {"measurement": "relative viability", "setting": "NCI-H1437; first compound 0.05 µM", "value": 0.605}, {"measurement": "relative viability", "setting": "NCI-H1437; first compound 0.1581 µM", "value": 0.423}, {"measurement": "relative viability", "setting": "NCI-H1437; first compound 0.5 µM", "value": 0.303}, {"measurement": "relative viability", "setting": "NCI-H2085; first compound 0.005 µM", "value": 0.698}, {"measurement": "relative viability", "setting": "NCI-H2085; first compound 0.01581 µM", "value": 0.79}, {"measurement": "relative viability", "setting": "NCI-H2085; first compound 0.05 µM", "value": 0.744}, {"measurement": "relative viability", "setting": "NCI-H2085; first compound 0.1581 µM", "value": 0.618}, {"measurement": "relative viability", "setting": "NCI-H2085; first compound 0.5 µM", "value": 0.635}]}]}
